Source: article PMC5356695, “A phase 1 study of oral ridaforolimus in pediatric patients with advanced solid tumors” (Oncotarget, 2016)
Like-named read-outs stand apart in the source and are kept apart here.

Key:
[1] = design: method as in earlier work; conditions: 40 mg once daily 5 days per week, ref data on file with ARIAD Pharmaceuticals, Inc./Merck & Co.; cited from earlier work
[2] = system: adults with advanced solid tumors; conditions: cited from earlier work
[3] = system: advanced soft tissue and bone sarcomas; conditions: cited from earlier work
[4] = clinical; conditions: for AUC(0-t) / half-life / concentration at 4 h / concentration at 8 h: human, whole blood
Description: Whole blood samples (2 mL each) for pharmacokinetic analyses were collected at the following time points: <5 minutes before dosing on days 1 through 5 and at 0.5, 1, 2, 4, 8, 24, and 72 hours after drug administration on day 5 of the first week of the first treatment cycle. Blood concentrations of ridaforolimus were determined using a validated liquid chromatography/tandem mass spectrometry assay as in previous ridaforolimus studies (Charles River Laboratories, Shrewsbury, MA). The pharmacokinetic parameters of AUC0–24h and elimination half-life (t1/2) were determined by noncompartmental modeling using WinNonlin software (Pharsight, Certara, Princeton, NJ).

[5] = design: method as in PMID 22037923; conditions: cited from earlier work
[6] = 7 pediatric patients aged 13 to 17 years

CO[C@H]1C[C@@H]2CC[C@@H](C)[C@@](O)(O2)C(=O)C(=O)N2CCCC[C@H]2C(=O)O[C@H]([C@H](C)C[C@@H]2CC[C@@H](OP(C)(C)=O)[C@H](OC)C2)CC(=O)[C@H](C)/C=C(\C)[C@@H](O)[C@@H](OC)C(=O)[C@H](C)C[C@H](C)/C=C/C=C/C=C/1C [ridaforolimus]
Day 5 AUC0–24h in adults, estimated geometric mean [1]: 1,739 h•ng/mL | MTD ([2]; intravenous): 18.75 mg/day | Adult RP2D ([2]; oral, once daily for 5 days per week): 40 mg | MTD ([2]; oral, once daily × 5 days per week regimen): 40 mg | Patients with partial response [3, 6]: 1 | Patients with progressive disease [3, 6]: 2 | Patients with stable disease [3, 6]: 4 | Reduction of risk of progression or death compared with placebo ([3]; oral, after benefit from preceding chemotherapy): 28% | Exposure (day 5 AUC0–24h) higher than adult target level ([4]; 28 mg/m^2 vs adult RP2D 40 mg (1,739 h•ng/mL)): approximately 34% | BSADN AUC, lower bound of 90% 1-sided confidence interval for geometric mean ([4]; 33 mg/m^2): 61.2 h•ng•m^2/(mL•mg) | C4h, lower bound of 90% 1-sided confidence interval for geometric mean ([4]; 33 mg/m^2): 154 ng/mL | C8h, lower bound of 90% 1-sided confidence interval for geometric mean ([4]; 33 mg/m^2): 100 ng/mL | Day 5 AUC0–24h, lower bound of 90% 1-sided confidence interval for geometric mean ([4]; 33 mg/m^2): 2,020 h•ng/mL | t1/2, lower bound of 90% 1-sided confidence interval for geometric mean ([4]; 33 mg/m^2): 23.0 h | BSADN AUC (AUC normalized by BSA-adjusted dose), geometric mean ([4]; 33 mg/m^2, n = 11): 69.8 h•ng•m^2/(mL•mg) | Exposure (day 5 AUC0–24h) higher than adult target level ([4]; 33 mg/m^2 vs adult RP2D 40 mg (1,739 h•ng/mL)): ~31% | AUC(0-t) ([4]; oral, 22 mg/m2): 1340 ng·h/mL | half-life ([4]; oral, 22 mg/m2, t1/2, arithmetic mean (SD), 22 mg/m^2, n = 3): 1530 min | half-life ([4]; oral, 22 mg/m2, t1/2, geometric mean (CV%), 22 mg/m^2, n = 3): 1530 min | half-life ([4]; oral, 22 mg/m2, t1/2, median (range), 22 mg/m^2, n = 3): 1470 min | concentration at 4 h ([4]; oral, 22 mg/m^2, C4h, arithmetic mean (SD), day 5, 22 mg/m^2, n = 4): 139 ng/mL | concentration at 4 h ([4]; oral, 22 mg/m^2, C4h, geometric mean (CV%), day 5, 22 mg/m^2, n = 4): 131 ng/mL | concentration at 8 h ([4]; oral, 22 mg/m^2, C8h, arithmetic mean (SD), day 5, 22 mg/m^2, n = 4): 74 ng/mL | concentration at 8 h ([4]; oral, 22 mg/m^2, C8h, geometric mean (CV%), day 5, 22 mg/m^2, n = 4): 71 ng/mL | AUC(0-t) ([4]; oral, 28 mg/m2): 2330 ng·h/mL | half-life ([4]; oral, 28 mg/m2, t1/2, arithmetic mean (SD), 28 mg/m^2, n = 3): 1690 min | half-life ([4]; oral, 28 mg/m2, t1/2, geometric mean (CV%), 28 mg/m^2, n = 3): 1630 min | half-life ([4]; oral, 28 mg/m2, t1/2, median (range), 28 mg/m^2, n = 3): 1590 min | concentration at 4 h ([4]; oral, 28 mg/m^2, C4h, arithmetic mean (SD), day 5, 28 mg/m^2, n = 3): 228 ng/mL | concentration at 4 h ([4]; oral, 28 mg/m^2, C4h, geometric mean (CV%), day 5, 28 mg/m^2, n = 3): 227 ng/mL | concentration at 8 h ([4]; oral, 28 mg/m^2, C8h, arithmetic mean (SD), day 5, 28 mg/m^2, n = 3): 119 ng/mL | concentration at 8 h ([4]; oral, 28 mg/m^2, C8h, geometric mean (CV%), day 5, 28 mg/m^2, n = 3): 116 ng/mL | AUC(0-t) ([4]; oral, 33 mg/m2): 2280 ng·h/mL | half-life ([4]; oral, 33 mg/m2, t1/2, arithmetic mean (SD), 33 mg/m^2, n = 9): 1610 min | half-life ([4]; oral, 33 mg/m2, t1/2, geometric mean (CV%), 33 mg/m^2, n = 9): 1560 min | half-life ([4]; oral, 33 mg/m2, t1/2, median (range), 33 mg/m^2, n = 9): 1490 min | concentration at 4 h ([4]; oral, 33 mg/m^2, C4h, arithmetic mean (SD), day 5, 33 mg/m^2, n = 11): 200 ng/mL | concentration at 4 h ([4]; oral, 33 mg/m^2, C4h, geometric mean (CV%), day 5, 33 mg/m^2, n = 11): 184 ng/mL | concentration at 8 h ([4]; oral, 33 mg/m^2, C8h, arithmetic mean (SD), day 5, 33 mg/m^2, n = 12): 118 ng/mL | concentration at 8 h ([4]; oral, 33 mg/m^2, C8h, geometric mean (CV%), day 5, 33 mg/m^2, n = 12): 113 ng/mL | half-life ([4]; oral, Mean (geometric) elimination half-lives, independent of dose level): 1560 to 1620 min | Steady state from trough concentrations (predose days 1 through 5) ([4]; oral once daily): steady-state concentrations had been achieved at day 5 | Lag before absorption after dosing ([4]; oral, all dose levels): approximately 2 hours | Time of highest blood concentrations after dosing ([4]; oral, all dose levels): ~4 h | Blood–brain barrier passage [5]: crosses the blood–brain barrier
